From US8603527B2, “Pharmaceutical formulations of a substituted diaminopurine” (Signal Pharmaceuticals, LLC, priority 2010, dated 2013)
Where two headings read alike, the source gives them in different places.

What was measured:
Aqueous solubility = assay type: physicochemical; conditions: aqueous medium
[1] = Toxicokinetics in pregnant female rabbits; assay type: in vivo, rabbit; conditions: for Kp / AUC / Cmax: female, New Zealand White Hra:(NZW)SPF, rabbit; for Kp: fetal plasma / maternal plasma, oral, Gestation Day 19, calculated from individual ratios, read-out: Fetal:Maternal Plasma Ratio; for Kp / Doe plasma concentration / Fetus concentration (pooled fetal blood samples): rabbits; for AUC / Cmax: po, pregnant rabbits; for Doe plasma concentration / Fetus concentration (pooled fetal blood samples): 2 hours after dosing on Gestation Day 19
[2] = Relative bioavailability and food effect crossover study of formulated capsules in healthy male subjects; assay type: in vivo, human; conditions: Treatments A-D, single 100 mg dose
From the text: Methods: This was an open-label, randomized, 4-treatment, 4-period, 4-sequence crossover study in healthy subjects to evaluate relative bioavailability and food effect on Compound I capsule formulations. The study consisted of a screening phase (Day −21 to Day −2) for subject eligibility, a baseline/admission phase (Day −1) for each period, treatment and assessment phase (Days 1 to Day 8) for each period, and a follow-up visit (Day 15±2 days from the last dose). During each period, subjects were domiciled at the study site from Day −1 through Day 2 (discharged on Day 3 after PK sampling and safety evaluations). Subjects then visited the study center on Days 4, 6, and 8 of each period for PK sampling and safety evaluations. Between periods, there was a minimum of 10 days of washout from the prior dose to the next dose (no more than 14 days).
Sixteen (16) male subjects were be randomized to one of the following 4 treatment sequences (4 subjects per sequence) on Day 1 of Period 1:
Subjects started fasting from the night of Day −1 for a minimum of 10 hours prior to dosing. On Day 1 of each period, subjects received their randomized treatment of Compound I at approximately 8 AM. […] Approximately 5 mL of blood sample was collected on days 1-8 for PK analysis. Subjects received standardized meals scheduled at approximately the same time during confinement in each period of the study.

[3] = plasma, 10 mg/kg/day, 10 mg/kg/d oral, Gestation Day 7
[4] = plasma, 10 mg/kg/day, 10 mg/kg/d oral, Gestation Day 18
[5] = plasma, 20 mg/kg/day, 20 mg/kg/d oral, Gestation Day 7
[6] = plasma, 40 mg/kg/day, 40 mg/kg/d oral, Gestation Day 7
[7] = plasma, 40 mg/kg/day, 40 mg/kg/d oral, Gestation Day 18

For `O[C@H]1CC[C@H](Nc2ncc3nc(Nc4c(F)cc(F)cc4F)n([C@H]4CCOC4)c3n2)CC1` [Compound I, 4-((9-((3S)-tetrahydro-3-furanyl)-8-((2,4,6-trifluorophenyl)amino)-9H-purin-2-yl)amino)-trans-cyclohexanol], the solubility (Aqueous solubility) was under 1000 µg/mL, the Kp ([1]; 10 mg/kg/day, 10 mg/kg/d) was 0.1 and the Kp ([1]; 20 mg/kg/day, 20 mg/kg/d) was 0.09. It also gave a Kp ([1]; 40 mg/kg/day, 40 mg/kg/d) of 0.24, an AUC ([1]; in vivo, 20 mg/kg/day, 20 mg/kg/d oral, Gestation Day 18) of 85000 ng·h/mL and an AUC [1, 3] of 35200 ng·h/mL. The Cmax [1, 3] was 6520 ng/mL, the AUC [1, 4] was 39300 ng·h/mL and the Cmax [1, 4] was 6730 ng/mL. For the same compound, the AUC [1, 5] was 79100 ng·h/mL, the Cmax [1, 5] was 12500 ng/mL and the Cmax ([1]; plasma, 20 mg/kg/day, 20 mg/kg/d oral, Gestation Day 18) was 13200 ng/mL. For the same compound, the AUC [1, 6] was 152000 ng·h/mL, the Cmax [1, 6] was 21200 ng/mL and the AUC [1, 7] was 152000 ng·h/mL. The Cmax [1, 7] was 21500 ng/mL, the “maternal AUC as fold of human AUC” value ([1]; rabbits at NOAEL 20 mg/kg/day vs human 100 mg BID) was about 3.4 fold and the “maternal AUC as fold of human AUC” value ([1]; rabbits at NOAEL 20 mg/kg/day vs human 200 mg BID) was about 1.6 fold. The Doe plasma concentration ([1]; 10 mg/kg/d) was 4916 ng/mL, the “Fetus concentration (pooled fetal blood samples)” value (shortened to “Fetus concentration”) ([1]; 10 mg/kg/d) was 465.7 ng/mL and the Doe plasma concentration ([1]; 20 mg/kg/d) was 9217 ng/mL. For the same compound, the “Fetus concentration” value ([1]; 20 mg/kg/d) was 870.7 ng/mL, the Doe plasma concentration ([1]; 40 mg/kg/d) was 15594 ng/mL and the “Fetus concentration” value ([1]; 40 mg/kg/d) was 3426 ng/mL. For the same compound, the “AUCt, Intra-Subject CV %” value [2] was 16.1%, the “AUC∞, Intra-Subject CV %” value [2] was 15.3% and the “Cmax, Intra-Subject CV %” value [2] was 36.8%.
